Results from patent US8883798B2, “Pyrimidine compounds inhibiting the formation of nitric oxide and prostaglandin E2, method of production thereof and use thereof” (Ustav Organicke Chemie a Biochemie Akademie Ved CR, V.V.I., priority 2011, dated 2014).

Experiments:
peritoneal cells of mice = test: Cell viability of mouse peritoneal cells (WST-1 kit); format: cell-based; settings: Table 3A, substance 50 μmol·l^−1, 24 h
Outline: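 C57BL/6 mouse peritoneal cells (1×10^6/mL) cultured 24 h with compounds at 50 μmol·l^−1. Viability read with WST-1 tetrazolium salt and expressed as percent of untreated control cells (100%).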

[1] = test system: Salmonella typhimurium TA 98 and TA 100, Escherichia coli WP2 uvrA; settings: all strains, all tested concentrations, with and without metabolic activation
Protocol: With compound 28, its possible mutagenicity (genotoxicity) was assessed using the standard bacterial reverse mutation test. According to Council Regulation (ES) No. 440/2008, stipulating the test methods according to the European Parliament and Council regulation (ES), the method used was B.13/14, Mutagenicity—Reverse Mutation Test Using Bacteria, which is described in the same way also in the OECD Test Guideline No. 471.
[…] The experiments were conducted without using metabolic activation and after activation with supernatant S9 from […] livers and with mixtures of cofactors (NADP and glucoso-6-phosphate) to determine the mutagenicity of the metabolic products of the compound tested. Supernatant S9 was prepared according to the literature [Mutat. Res. 113, 173-215, 1983].
The principle of the test is to detect possible revertants created by reverse mutation, which would be induced in the bacterial culture by the tested compound. Specially constructed bacterial strains are used, carrying mutations in the place for his (trp), which are not capable of forming colonies on the minimum plates without histidine or tryptophan. […] Mutagenic potential is given by the growing number of revertants in the influenced groups in comparison with a negative control, and/or in dependence on the growing number of revertants on the dose of the tested compound.
Bacterial testers, types Salmonella typhimurium TA 98 (CCM 3811) and Escherichia coli WP2 uvrA (CCM 4751), were acquired from the Czech Collection of Microorganisms of Masaryk University, Brno and the strain Salmonella typhimurium TA100 (CIP 103796, lot No. 1008) from the Biological Resource Center, Institut Pasteur in Paris (CRBIP).

[2] = test system: production of prostaglandin E2 (PGE2); test: Production of prostaglandin E2 (PGE2) in cultures of mouse peritoneal cells stimulated with LPS (ELISA kit); format: cell-based, mice; settings: Table 3A, substance 50 μmol·l^−1, 6 h
Outline: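 C57BL/6 mouse peritoneal cells (3×10^6/mL) stimulated with LPS (10 ng/mL). PGE2 measured by ELISA.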

[3] = test system: acute experimental colitis in mice; test: Acute experimental colitis induced in mice by dextran sulphate sodium; format: in vivo, mice BALB/c; settings: for Therapeutical effect compared with 6-TG: acute colitis, approximately 10 mg/kg; for Course of induced acute experimental colitis: approximately 10 mg/kg by stomach probe for seven days; for Protection from severe forms of acute experimental colitis: daily oral doses of 2.5 mg/kg or 10 mg/kg
Protocol: The compounds tested were dissolved in 0.5% methylcellulose (MC, Bio-test s.r.o., Konárovice, Czech Republic; Lot: 050510BT) to acquire a final concentration of 2 mg/ml (ca 10 mg/kg). To achieve homogeneity of the suspensions, the substances in MC were disintegrated by ultrasound (sonicated; 20 s, λ=0.1 μm). Fresh suspensions were prepared every day.
The female mice of strain BALB/c at 13 weeks old were acquired from the breeding of the Institute of Physiology of the ASCR, v.v.i. Colitis was induced in them by administering a 3% solution (weight/volume) of sodium dextran sulphate (DSS, mol. weight 36-50 kDa; MP Biomedicals, Inc.) in drinking water for a period of seven days [Gastroenterology 98, 694-7, 1990]. Beginning on Day 1 of DSS administration, also a dose of the tested compound, dissolved in 100 μl MC (only a dose of methylcellulose in the case of the control animals), was administered for seven days by stomach probe.
The severity of the colitis was assessed on the last day of the experiment by scoring the clinical activity, histological parameters and measuring the length of the intestine.
The entire intestine was removed post mortem, without tightening it was placed on a ruler and measured. Shortening of the intestine is an indirect marker of infection (the shorter the intestine, the more serious the infection).
The points of the clinical activity are the sum of the individual assessments from 0 to 4 and were calculated using the following parameters: reduction of body weight (none=0 points, reduction by 1 to 5%=1 point, by 5-10%=2 points, by 10-20%=3 points, by 20%=4 points), consistency of the feces (solid=0 points; not solid, but not sticking to the anus=2 points; liquid, sticking to the anus=4 points) and bleeding (none=0 points, positive Guajak reaction=2 body, strong bleeding=4 points). This point assessment was totaled and divided by three to acquire the overall index of the activity of the disease, which was in a range from 0.0 (a healthy individual) to 4.0 (maximum activity of colitis) as described by Cooper et al. [Lab. Invest. 69, 238-49, 1993].
The descending colon was fixed in a buffered solution of 4% formaldehyde and poured into paraffin for the histological assessment. The sections were stained in hematoxylin/eosin. For every sample, four cross cuts were tested, which had been separated from one another by sections of a length of […]. The histological assessment was made for every cut by two pathologists in blind order, which provided an assessment combining the level of the infiltration of leukocytes into the layer of the lamia propria and into the submucosa along with the extent of the damage of the mucous membrane (see Table 1). The overall assessment is the average of the evaluation of the four sections, which was in a range from 0 (no signs of colitis) to 3 (severe colitis).
The differences in the intestinal length, DAI (disease activity index) and histological assessment of multiple groups were compared with the control group (MC/DSS) using a one-way analysis of the differences with a Dunnett test of multiple comparison. The differences were considered as statistically significant at P<0.05.
Compounds 28 and 51 were suspended in 0.5% methylcellulose (MC, Bio-test s.r.o., Konárovice, Czech Republic, Lot: 050510BT) to a concentration of 2 mg/ml (approximately 10 mg/kg). Sterile 0.5% MC was used as a placebo and a dose of 40 mg/each administration of 6-thioguanine (6TG) in 0.5% MC as a positive control. The administered suspensions were prepared freshly […].

## CCCCc1c(Cl)nc(NC=O)nc1Cl [Substance 51]
Peritoneal cells of mice
  Cell viability in % of the controls: 92.15 ± 9.90 % of the controls
[1]
  Mutagenicity (reverse mutation): non-mutagenous
[2]
  Production of prostaglandins in % of the controls: 5.22 ± 2.66 % of the controls
[3]
  Therapeutical effect compared with 6-TG: minimally equal with the effect of 6-TG
  Course of induced acute experimental colitis: statistically significant reduction of the course of the induced (severe form) experimental colitis
  Protection from severe forms of acute experimental colitis: protect mice from the severe forms of acute experimental colitis

## CCCCc1c(Cl)nc(N)nc1Cl [Substance 28]
Peritoneal cells of mice
  Cell viability in % of the controls: 100.42 ± 5.77 % of the controls
[1]
  Mutagenicity (reverse mutation): non-mutagenous
[2]
  Production of prostaglandins in % of the controls: 13.14 ± 0.13 % of the controls
[3]
  Therapeutical effect compared with 6-TG: minimally equal with the effect of 6-TG
  Course of induced acute experimental colitis: statistically significant reduction of the course of the induced (severe form) experimental colitis
  Protection from severe forms of acute experimental colitis: protect mice from the severe forms of acute experimental colitis
